Results from patent publication US20250214932A1, “T-TYPE CALCIUM CHANNEL MODULATORS COMPRISING AN AZASPIRONONANE CORE AND METHODS OF USE THEREOF” (Praxis Precision Medicines, Inc., priority 2022, published 2025).

Molecular target: Human Cav3.1 (Homo sapiens (Human), UniProt O43497)
Test: Human Cav3.1 calcium channel patch clamp assay (SyncroPatch 384PE, HEK-293 natClytin/TASK1+Cav3.1 cell line)
Type: cell-based
Conditions: patch clamp, HEK-293 natClytin/TASK1+Cav3.1 cells; class symbols; read-out: Human Cav3.1 IC50
Description: Pulse generation and data collection were performed with PatchController384 V1.3.0 and DataController384 V1.2.1 (Nanion Technologies). Off-line analysis was performed using Excel and Graphpad Prism (V 8.4.2) with complete data files uploaded to Dotmatics. The access resistance and apparent membrane capacitance were estimated using built-in protocols. Current was recorded in whole cell configuration from a population of cells. The cells were lifted, triturated, and resuspended at 800,000 cells/ml. The cells were allowed to recover in the cell hotel prior to experimentation. Currents were recorded at room temperature. The external solution contained the following (in mM): NaCl 80, NMDG 60, KCl 4, MgCl2 1, CaCl2 6, glucose 5 and HEPES 10 (pH=7.4, Osmolarity ˜300 mOsm). The extracellular solution was used as the wash, reference and compound delivery solution. […] The compound plate was created at 2× concentrated in the extracellular solution. The compound was diluted to 1:2 when added to the recording well. The amount of DMSO in the extracellular solution was held constant at the level used for the highest tested concentration. For the voltage clamp experiments on Cav3.1, data were sampled at 10 KHz. After establishment of the seal and the passage in the whole cell configuration, the cells were held at −120 mV. Cav3.1 current was evoked using a 100 ms step to −20 mV (to measure resting state block), followed by a 1600 ms step to −65 mV and a second 100 ms step to −20 mV (to measure voltage dependent block). The voltage protocol was applied every 15 seconds in the absence and in the presence of the compounds under investigation. […] Current amplitude (pA) was measured in the peak 1 and 2. The average of last 3 sweeps of each liquid period (vehicle, compound under investigation, full block) was calculated. Nickel-sensitive current was used to calculate the % of inhibition in the presence of the compound under investigation.
Pulse generation and data collection were performed with PatchController384 V1.3.0 and DataController384 V1.2.1 (Nanion Technologies). Off-line analysis was performed using Excel and Graphpad Prism (V 8.4.2) with complete data files uploaded to Dotmatics. The access resistance and apparent membrane capacitance were estimated using built-in protocols. Current was recorded in whole cell configuration from a population of cells.
The cells were lifted, triturated, and resuspended at 800,000 cells/ml. The cells were allowed to recover in the cell hotel prior to experimentation. Currents were recorded at room temperature. The external solution contained the following (in mM): NaCl 80, NMDG 60, KCl 4, MgCl2 1, CaCl2 6, glucose 5 and HEPES 10 (pH=7.4, Osmolarity ˜300 mOsm). The extracellular solution was used as the wash, reference and compound delivery solution.
The compound plate was created at 2× concentrated in the extracellular solution. The compound was diluted to 1:2 when added to the recording well. The amount of DMSO in the extracellular solution was held constant at the level used for the highest tested concentration. For the voltage clamp experiments on Cav3.1, data were sampled at 10 KHz. After establishment of the seal and the passage in the whole cell configuration, the cells were held at −120 mV. Cav3.1 current was evoked using a 100 ms step to −20 mV (to measure resting state block), followed by a 1600 ms step to −65 mV and a second 100 ms step to −20 mV (to measure voltage dependent block). The voltage protocol was applied every 15 seconds in the absence and in the presence of the compounds under investigation. […] Current amplitude (pA) was measured in the peak 1 and 2. The average of last 3 sweeps of each liquid period (vehicle, compound under investigation, full block) was calculated. Nickel-sensitive current was used to calculate the % of inhibition in the presence of the compound under investigation.

Sequence of Human Cav3.1 (O43497 whole entry): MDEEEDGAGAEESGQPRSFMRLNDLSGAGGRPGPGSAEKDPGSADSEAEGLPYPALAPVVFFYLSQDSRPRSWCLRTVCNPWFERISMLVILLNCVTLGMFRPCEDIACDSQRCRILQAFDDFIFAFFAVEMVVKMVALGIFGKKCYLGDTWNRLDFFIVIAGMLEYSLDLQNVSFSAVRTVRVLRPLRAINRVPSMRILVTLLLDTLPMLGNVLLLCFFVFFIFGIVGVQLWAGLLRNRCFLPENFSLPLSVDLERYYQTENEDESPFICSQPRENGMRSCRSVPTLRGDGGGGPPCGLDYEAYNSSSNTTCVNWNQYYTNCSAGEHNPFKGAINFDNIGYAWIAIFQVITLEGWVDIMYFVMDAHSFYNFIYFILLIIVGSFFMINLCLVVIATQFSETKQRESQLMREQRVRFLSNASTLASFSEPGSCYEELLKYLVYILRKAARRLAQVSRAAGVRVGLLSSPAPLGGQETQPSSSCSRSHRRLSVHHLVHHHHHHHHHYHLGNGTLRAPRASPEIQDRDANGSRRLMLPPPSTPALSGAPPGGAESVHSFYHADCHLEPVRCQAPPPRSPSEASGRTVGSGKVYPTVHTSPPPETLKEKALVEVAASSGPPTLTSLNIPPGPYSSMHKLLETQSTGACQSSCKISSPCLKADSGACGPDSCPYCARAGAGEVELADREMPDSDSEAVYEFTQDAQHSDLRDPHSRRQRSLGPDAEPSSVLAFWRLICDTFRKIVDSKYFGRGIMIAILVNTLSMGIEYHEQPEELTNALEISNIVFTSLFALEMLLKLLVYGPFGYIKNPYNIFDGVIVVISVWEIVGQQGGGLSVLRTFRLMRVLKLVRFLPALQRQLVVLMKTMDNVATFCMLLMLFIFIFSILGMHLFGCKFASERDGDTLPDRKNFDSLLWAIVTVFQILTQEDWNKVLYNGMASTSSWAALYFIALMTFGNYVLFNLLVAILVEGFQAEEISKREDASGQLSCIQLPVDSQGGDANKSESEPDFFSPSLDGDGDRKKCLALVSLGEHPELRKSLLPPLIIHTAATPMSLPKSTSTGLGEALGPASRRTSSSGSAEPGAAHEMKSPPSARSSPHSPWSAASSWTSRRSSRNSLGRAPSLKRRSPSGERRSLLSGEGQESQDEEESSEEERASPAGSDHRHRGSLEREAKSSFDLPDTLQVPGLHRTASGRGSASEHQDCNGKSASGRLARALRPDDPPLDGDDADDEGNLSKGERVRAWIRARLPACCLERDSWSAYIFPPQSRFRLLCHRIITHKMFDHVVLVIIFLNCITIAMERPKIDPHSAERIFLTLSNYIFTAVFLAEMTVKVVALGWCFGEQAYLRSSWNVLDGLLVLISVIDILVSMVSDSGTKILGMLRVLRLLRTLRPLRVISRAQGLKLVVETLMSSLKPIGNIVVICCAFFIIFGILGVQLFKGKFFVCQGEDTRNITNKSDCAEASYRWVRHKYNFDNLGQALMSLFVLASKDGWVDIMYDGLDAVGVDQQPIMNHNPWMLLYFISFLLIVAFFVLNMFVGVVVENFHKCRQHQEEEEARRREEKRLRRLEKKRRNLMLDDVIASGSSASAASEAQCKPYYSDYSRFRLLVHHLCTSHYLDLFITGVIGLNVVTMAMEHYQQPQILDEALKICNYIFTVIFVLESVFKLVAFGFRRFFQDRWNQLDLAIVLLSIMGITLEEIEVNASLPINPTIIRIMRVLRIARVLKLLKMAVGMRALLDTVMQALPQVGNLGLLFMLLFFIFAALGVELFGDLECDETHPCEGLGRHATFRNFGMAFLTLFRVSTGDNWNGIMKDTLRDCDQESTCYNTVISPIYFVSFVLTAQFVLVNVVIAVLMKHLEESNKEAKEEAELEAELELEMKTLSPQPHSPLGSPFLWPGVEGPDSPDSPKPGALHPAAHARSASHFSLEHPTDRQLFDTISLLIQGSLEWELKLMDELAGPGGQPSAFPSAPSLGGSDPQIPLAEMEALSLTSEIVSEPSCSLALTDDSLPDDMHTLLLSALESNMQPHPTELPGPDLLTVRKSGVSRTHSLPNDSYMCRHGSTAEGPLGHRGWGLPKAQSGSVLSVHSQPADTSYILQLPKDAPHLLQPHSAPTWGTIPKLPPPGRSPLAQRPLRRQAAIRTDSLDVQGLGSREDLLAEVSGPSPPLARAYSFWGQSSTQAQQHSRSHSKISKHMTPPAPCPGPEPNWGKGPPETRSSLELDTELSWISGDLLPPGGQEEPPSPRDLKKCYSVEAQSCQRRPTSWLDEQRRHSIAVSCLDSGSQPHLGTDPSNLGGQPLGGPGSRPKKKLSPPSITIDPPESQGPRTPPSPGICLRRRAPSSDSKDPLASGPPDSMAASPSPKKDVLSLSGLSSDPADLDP

Row | IC50 [µM] | Structure (SMILES)
1 | < 1 | O=C(Nc1cc(F)cc(C(F)F)c1)C1CCC2(CC1)CN(CCC1CCCC1)C2 [Example 31]
2 | < 1 | CCC(C)(C)N(C)C(=O)CN1CC2(CCC(C(=O)Nc3cc(F)cc(C(F)F)c3)CC2)C1 [Example 34]
3 | < 1 | CC(C)(C)NC(=O)CN1CC2(CCC(C(=O)Nc3cccc(Cl)c3)CC2)C1 [Example 2]
4 | < 1 | CC(C)(NC(=O)CN1CC2(CCC(C(=O)Nc3cc(F)cc(C(F)F)c3)CC2)C1)C(F)(F)F [Example 30]
5 | 1 to 10 | Cc1cc(NC(=O)C2CCC3(CC2)CN(CC(=O)NC(C)(C)C)C3)nn1-c1ccccc1 [Example 6]
6 | < 1 | O=C(Nc1cc(F)cc(C(F)F)c1)C1CCC2(CC1)CN(CCC1CCC(F)(F)CC1)C2 [Example 37]
7 | < 1 | O=C(Nc1cc(F)cc(Cl)c1)C1CCC2(CC1)CN(CCC1CCCC1)C2 [Example 17]

Same assay, conditions: voltage dependent block (VDB); read-out: Cav3.1 (VDB) IC50

Row | IC50 [µM] | Structure (SMILES)
8 | 0.534 | O=C(CN1CC2(CCC(CNC(=O)c3cccc(Cl)c3)CC2)C1)NC1(C(F)(F)F)CC1 [Example 147]
9 | 0.357 | O=C(CN1CC2(CCC(C(=O)NC34CCC(CC3)CC4)CC2)C1)NC1(C(F)(F)F)CC1 [Example 148]
10 | 0.521 | O=C(CN1CC2(CCC(C(=O)Nc3cc(F)cc(Cl)c3)CC2)C1)NC1(C(F)(F)F)COC1 [Example 89]
11 | 0.941 | O=C(Nc1cc(F)cc(Cl)c1)C1CCC2(CC1)CN(CC(F)(F)C1CCCCC1)C2 [Example 74]
12 | 0.3 | COc1cc(NC(=O)C2CCC3(CC2)CN(CC(=O)NC(C)(C)C)C3)ccc1F [Example 156]
13 | 0.576 | O=C(Nc1cc(F)cc(Cl)c1)C1CCC2(CC1)CN(CCS(=O)(=O)c1ccccc1)C2 [Example 91]
14 | 0.0597 | O=C(CN1CC2(CCC(C(=O)Nc3cc(F)cc(Cl)c3)CC2)C1)NC1(C(F)(F)F)CC1 [Example 58]
15 | 0.497 | O=C(Nc1cccc(Cl)c1)C1CCC2(CC1)CN(CCS(=O)(=O)c1ccccc1)C2 [Example 102]
16 | 0.191 | COCC(C)(C)NC(=O)CN1CC2(CCC(C(=O)Nc3cc(F)cc(C(F)F)c3)CC2)C1 [Example 45]
17 | 0.404 | O=C(CN1CC2(CCC(C(=O)NC34CC5CC(CC(C5)C3)C4)CC2)C1)NC1(C(F)(F)F)CC1 [Example 151]
18 | 1.13 | CCOc1cccc(NC(=O)C2CCC3(CC2)CN(CC(=O)NC2(C(F)(F)F)CC2)C3)c1 [Example 114]
19 | 0.377 | O=C(Nc1cc(F)cc(C(F)F)c1)C1CCC2(CC1)CN(CCC1CCCC1)C2 [Example 31]
20 | 0.344 | O=C(CN1CC2(CCC(C(=O)Nc3cc(F)cc(C(F)F)c3)CC2)C1)NC1(C(F)(F)F)COC1 [Example 86]
21 | < 0.0782 | COc1cc(Cl)cc(NC(=O)C2CCC3(CC2)CN(CC(=O)NC2(C(F)(F)F)CC2)C3)c1 [Example 160]
22 | 0.199 | CCC(C)(C)N(C)C(=O)CN1CC2(CCC(C(=O)Nc3cc(F)cc(C(F)F)c3)CC2)C1 [Example 34]
23 | 0.294 | CC(C)(C)NC(=O)CN1CC2(CCC(C(=O)Nc3cccc(Cl)c3)CC2)C1 [Example 39]
24 | 0.192 | CC(C)(NC(=O)CN1CC2(CCC(C(=O)Nc3cc(F)cc(C(F)F)c3)CC2)C1)C(F)(F)F [Example 30]
25 | 0.307 | CC1(OC(=O)NCCN2CC3(CCC(C(=O)Nc4cc(F)cc(Cl)c4)CC3)C2)CC1 [Example 81]

Row | IC50 [µM] | Structure (SMILES)
26 | 0.439 | O=C(Nc1cc(F)cc(Cl)c1)C1CCC2(CC1)CN(CC(F)C1CCCC1)C2 (stereo not shown) [Example 77]
27 | 0.43 | CC(C)(NC(=O)CN1CC2(CCC(C(=O)Nc3cccc(C(F)F)c3)CC2)C1)C(F)(F)F [Example 65]
28 | 0.572 | N#CC1(CN2CC3(CCC(C(=O)Nc4cc(Cl)cc(Cl)c4)CC3)C2)CC1 [Example 128]
29 | 2.28 | Cc1cc(NC(=O)C2CCC3(CC2)CN(CC(=O)NC(C)(C)C)C3)nn1-c1ccccc1 [Example 6]
30 | 0.149 | O=C(CN1CC2(CCC(C(=O)Nc3ccc(F)c(OC(F)F)c3)CC2)C1)NC1(C(F)(F)F)CC1 [Example 124]
31 | 0.428 | O=C(Nc1cc(F)cc(C(F)F)c1)C1CCC2(CC1)CN(CCS(=O)(=O)c1ccccc1)C2 [Example 80]
32 | 0.11 | COc1cc(F)cc(NC(=O)C2CCC3(CC2)CN(CC(=O)NC2(C(F)(F)F)CCC2)C3)c1 [Example 84]
33 | 0.802 | COc1cc(F)cc(NC(=O)C2CCC3(CC2)CN(CC(F)(F)C2CCCCC2)C3)c1 [Example 90]
34 | 0.709 | O=C(CN1CC2(CCC(C(=O)Nc3cc(F)cc(Cl)c3)CC2)C1)OC1CCCC1 [Example 57]
35 | 0.932 | O=C(CN1CC2(CCC(C(=O)Nc3cccc(C(F)F)c3)CC2)C1)NC1(C(F)(F)F)CC1 [Example 111]
36 | 0.469 | CC(C)(C)NC(=O)CN1CC2(CCC(F)(C(=O)Nc3cc(F)cc(C(F)F)c3)CC2)C1 [Example 51]
37 | 0.323 | O=C(Nc1cc(F)cc(C(F)F)c1)C1CCC2(CC1)CN(CCC1CCC(F)(F)CC1)C2 [Example 37]
38 | 0.182 | O=C(Nc1cc(F)cc(Cl)c1)C1CCC2(CC1)CN(CCC1CCCC1)C2 [Example 17]
39 | 0.691 | Cc1cccc(NC(=O)C2CCC3(CC2)CN(CC(=O)NC2(C(F)(F)F)CC2)C3)c1 [Example 116]
40 | 0.645 | O=C(Nc1cc(F)cc(C(F)F)c1)C1CCC2(CC1)CN(CC(F)C1CCCC1)C2 (stereo not shown) [Example 93]
41 | 1.07 | O=C(Nc1cc(F)cc(Cl)c1)C1CCC2(CC1)CN(CC(F)(F)C1CCCC1)C2 [Example 78]
42 | 0.435 | CC(C)(NC(=O)CN1CC2(CCC(CNC(=O)c3cccc(Cl)c3)CC2)C1)C(F)(F)F [Example 146]

System: absence seizures
Test: not given
Conditions: patients treated with either of these drugs; cited from earlier work

Row | Structure (SMILES) | intolerable side effects, patients affected [%]
43 | CCCC(CCC)C(=O)O [valproate] | 24
